Converted amounts (≈) assume the structure as drawn.
What was measured:
[1] = tested on: C. difficile 630 (CD630, ATCC BAA-1382); experiment: MIC by broth microdilution against C. difficile 630; format: cell-based, Clostridium difficile; settings: Table 1, strain 630, 20-24 h, 37° C.
[2] = tested on: C. difficile strains 630 (CD630) and 4118 (CD4118); experiment: MIC / growth inhibition against C. difficile, covering both strains; format: cell-based, Clostridium difficile
[3] = tested on: C. difficile 4118 (CD4118, ATCC BAA-1870, BI/NAP1/027); experiment: MIC by broth microdilution against C. difficile 4118; format: cell-based, Clostridium difficile; settings: Table 1, strain 4118, 20-24 h, 37° C.
S. aureus RN4220 = experiment: MIC against aerobic bacteria; format: cell-based; settings: Staphylococcus aureus, RN4220; aerobic; read-out: MIC S. aureus RN4220
C. sporogenes ATCC 15579 = experiment: microbe, parasite or virus in culture; format: cell-based, Clostridium sporogenes; settings: Clostridium sporogenes, ATCC15579, read-out: MIC C. sporogenes ATCC 15579

| SMILES | MIC C. difficile 630 [1] | growth inhibitory activity against CD630 and CD4118 (in words) [2] | MIC C. difficile 4118 [3] | also measured |
| --- | --- | --- | --- | --- |
| O=C(Nc1ccc(Oc2ccccc2)cc1)c1cc(I)cc(I)c1O [Compound 5a] | 0.5 µg/mL (≈ 0.897 µM) | high in vitro potency | 1 µg/mL (≈ 1.79 µM) | – |
| COc1c(I)cc(I)cc1C(=O)Nc1ccc(Oc2ccccc2)cc1 [Compound 5b] | >32 µg/mL | inactive | >32 µg/mL | – |
| O=C(Nc1ccc(Oc2ccccc2)cc1)c1cc(I)cc(I)c1 [Compound 5c] | >32 µg/mL | inactive | >32 µg/mL | – |
| CN(C(=O)c1cc(I)cc(I)c1O)c1ccc(Oc2ccccc2)cc1 [Compound 5d] | >32 µg/mL | inactive | >32 µg/mL | – |
| O=C(Nc1ccc(Oc2ccc(F)cc2)cc1)c1cc(I)cc(I)c1O [Compound 5e] | 0.13 µg/mL (≈ 0.226 µM) | high in vitro potency | 0.13 µg/mL (≈ 0.226 µM) | – |
| Cc1ccc(Oc2ccc(NC(=O)c3cc(I)cc(I)c3O)cc2)cc1 [Compound 5f] | 0.13 µg/mL (≈ 0.228 µM) | high in vitro potency | 0.25 µg/mL (≈ 0.438 µM) | – |
| O=C(Nc1ccc(Oc2ccc(Cl)cc2)cc1)c1cc(I)cc(I)c1O [Compound 5g] | 0.13 µg/mL (≈ 0.22 µM) | high in vitro potency | 0.25 µg/mL (≈ 0.423 µM) | – |
| COc1c(I)cc(I)cc1C(=O)Nc1ccc(Oc2ccc(Cl)cc2)cc1 [Compound 5h] | >32 µg/mL | inactive | >32 µg/mL | – |
| COc1c(I)cc(I)cc1C(=O)Nc1ccc2ccccc2c1 [Compound 6b] | >32 µg/mL | inactive | >32 µg/mL | – |
| O=C(Nc1ccc2ccccc2c1)c1cc(I)cc(I)c1 [Compound 6c] | >32 µg/mL | inactive | >32 µg/mL | – |
| O=C(Nc1ccc(-c2ccccc2)cc1)c1cc(I)cc(I)c1O [Compound 7a] | 0.5 µg/mL (≈ 0.924 µM) | – | 1 µg/mL (≈ 1.85 µM) | – |
| O=C(Nc1ccccc1Cl)c1cc(I)cc(I)c1O [Compound 7c] | 8 µg/mL (≈ 16 µM) | – | 8 µg/mL (≈ 16 µM) | MIC against C. difficile ([2]; one statement covering CD630 and CD4118): 8 µg/mL (≈ 16 µM) |
| O=C(Nc1ccc(I)cc1)c1cc(I)cc(I)c1O [Compound 7d] | 0.13 µg/mL (≈ 0.22 µM) | – | 0.25 µg/mL (≈ 0.423 µM) | – |
| O=C(Nc1ccc(Oc2ccc(Cl)cc2)cc1)c1cc(Cl)cc(Cl)c1O [Compound 8, 3,5-Dichloro-N-(4-(4-chlorophenoxy)phenyl)-2-hydroxybenzamide] | – | – | – | MIC ([1]; Clostridioides difficile, ATCCBAA1382): ≤ 0.03 µg/mL; MIC ([2]; Clostridioides difficile, one statement covering CD630 and CD4118, read-out: MIC against C. difficile): ≤ 0.13 µg/mL; enhancement of potency relative to 5g and metronidazole ([2]; MIC ratio, Table 1): 4 fold; improvement of activity over vancomycin ([2]; MIC ratio, Table 1): ~32 fold; MIC (S. aureus RN4220): 0.13 µg/mL (≈ 0.318 µM); MIC ([3]; Clostridioides difficile, ATCCBAA1870, read-out: MIC C. difficile 4118): 0.06 µg/mL (≈ 0.147 µM); MIC (C. sporogenes ATCC 15579): 4 µg/mL (≈ 9.79 µM) |
